According to US20240269139A1, “COMPOUNDS FOR TARGETED PROTEIN DEGRADATION OF KINASES” (DANA-FARBER CANCER INSTITUTE, INC., priority 2020, published 2024):

Assays:
[1] = target: protein kinases (human kinome) (Homo sapiens, UniProt P23443); assay type: cell-based; conditions: for logFC of RPS6KB1 (P23443-1): Experiment wp195; for logFC: RPS6KB1 (P23443-1), experiment wp195
[2] = target: protein kinases (human kinome) (Homo sapiens, UniProt Q9Y2K2); assay type: cell-based; conditions: for logFC of SIK3 (Q9Y2K2): Experiment wp195; for logFC: SIK3 (Q9Y2K2), experiment wp195
Chain of protein kinases (human kinome) (Homo sapiens, UniProt Q9Y2K2) (Q9Y2K2 whole entry): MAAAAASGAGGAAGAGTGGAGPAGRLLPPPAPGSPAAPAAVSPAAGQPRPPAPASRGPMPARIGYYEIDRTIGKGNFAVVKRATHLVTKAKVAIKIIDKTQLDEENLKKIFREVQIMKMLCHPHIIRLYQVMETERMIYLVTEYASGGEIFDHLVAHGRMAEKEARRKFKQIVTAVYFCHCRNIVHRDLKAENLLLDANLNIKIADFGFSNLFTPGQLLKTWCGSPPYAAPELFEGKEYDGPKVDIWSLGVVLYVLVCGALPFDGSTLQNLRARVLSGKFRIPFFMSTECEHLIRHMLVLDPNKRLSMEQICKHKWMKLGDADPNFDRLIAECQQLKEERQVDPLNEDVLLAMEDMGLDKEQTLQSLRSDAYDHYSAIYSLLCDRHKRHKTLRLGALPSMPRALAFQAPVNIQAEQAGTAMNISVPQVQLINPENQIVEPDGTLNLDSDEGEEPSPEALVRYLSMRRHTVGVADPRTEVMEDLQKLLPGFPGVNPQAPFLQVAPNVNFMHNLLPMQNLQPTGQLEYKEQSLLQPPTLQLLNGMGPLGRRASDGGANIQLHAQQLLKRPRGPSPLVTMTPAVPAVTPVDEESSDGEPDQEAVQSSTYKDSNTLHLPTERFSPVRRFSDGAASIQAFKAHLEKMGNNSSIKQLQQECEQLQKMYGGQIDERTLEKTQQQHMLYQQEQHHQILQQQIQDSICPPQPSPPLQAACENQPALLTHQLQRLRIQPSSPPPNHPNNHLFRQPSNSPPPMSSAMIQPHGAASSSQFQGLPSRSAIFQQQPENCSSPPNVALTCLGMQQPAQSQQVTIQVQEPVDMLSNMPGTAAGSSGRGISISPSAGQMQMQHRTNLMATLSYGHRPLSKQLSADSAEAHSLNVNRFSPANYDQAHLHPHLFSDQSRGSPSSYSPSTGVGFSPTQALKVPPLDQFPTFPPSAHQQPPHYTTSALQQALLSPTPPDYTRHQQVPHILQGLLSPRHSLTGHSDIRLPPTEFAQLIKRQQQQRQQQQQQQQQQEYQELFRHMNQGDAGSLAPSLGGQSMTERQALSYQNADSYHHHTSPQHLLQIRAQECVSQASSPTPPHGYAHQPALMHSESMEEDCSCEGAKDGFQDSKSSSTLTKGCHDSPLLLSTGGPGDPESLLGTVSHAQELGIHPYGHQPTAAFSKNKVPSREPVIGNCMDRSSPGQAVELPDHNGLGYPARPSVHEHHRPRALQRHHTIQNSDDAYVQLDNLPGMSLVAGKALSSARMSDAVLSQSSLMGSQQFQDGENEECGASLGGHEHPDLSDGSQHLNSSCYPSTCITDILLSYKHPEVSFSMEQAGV

Chain of protein kinases (human kinome) (Homo sapiens, UniProt P23443) (P23443 whole entry): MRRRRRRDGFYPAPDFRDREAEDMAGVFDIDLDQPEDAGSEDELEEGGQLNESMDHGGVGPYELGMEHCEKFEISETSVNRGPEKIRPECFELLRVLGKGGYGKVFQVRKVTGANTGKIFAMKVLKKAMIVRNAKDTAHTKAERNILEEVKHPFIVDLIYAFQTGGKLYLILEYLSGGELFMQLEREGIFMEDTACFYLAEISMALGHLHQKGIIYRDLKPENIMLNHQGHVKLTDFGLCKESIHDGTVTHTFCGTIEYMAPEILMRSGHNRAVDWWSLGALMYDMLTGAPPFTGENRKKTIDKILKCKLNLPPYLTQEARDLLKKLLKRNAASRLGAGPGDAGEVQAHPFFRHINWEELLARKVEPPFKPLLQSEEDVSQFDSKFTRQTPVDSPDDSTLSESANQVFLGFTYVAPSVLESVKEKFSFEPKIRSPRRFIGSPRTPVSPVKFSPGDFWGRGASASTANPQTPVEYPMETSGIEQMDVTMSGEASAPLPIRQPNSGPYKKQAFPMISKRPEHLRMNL

`Cc1cnc(Nc2ccc(N3CCN(CCCCCCC(=O)N[C@H](C(=O)N4C[C@H](O)C[C@H]4C(=O)N[C@@H](C)c4ccc(-c5scnc5C)cc4)C(C)(C)C)CC3)cc2)nc1Nc1cccc(S(=O)(=O)NC(C)(C)C)c1` [JWG.123] was tested, and the “logFC of RPS6KB1 (P23443-1)” value [1] was −0.3426, the logFC [1] was −0.3426 and the “logFC of SIK3 (Q9Y2K2)” value [2] was −1.322. For the same compound, the logFC [2] was −1.322.

With `Cc1ncsc1-c1ccc([C@H](C)NC(=O)[C@@H]2C[C@@H](O)CN2C(=O)[C@@H](NC(=O)CCCCCN2CCc3cc(Nc4ncc(C5CC5)c(NCCCNC(=O)C5CCC5)n4)ccc3C2)C(C)(C)C)cc1` [BSJ.05.026] the “logFC of RPS6KB1 (P23443-1)” value [1] was −0.5629, the logFC [1] was −0.5629 and the “logFC of SIK3 (Q9Y2K2)” value [2] was −1.186. The logFC [2] was −1.186.
